Data published in US4089974A, “5-Carboxy-phenylenebis(carbonylimino)benzene carboxylic and dicarboxylic acids and salts” (American Cyanamid Company, priority 1977, dated 1978).
Counter-ions that a name gives are not always drawn.

Key:
[1] = system: Citrated sheep plasma (CSP); experiment: in vitro anti-coagulant activity (AC), citrated sheep plasma clotting; assay type: biochemical
Protocol: The sheep RBC's, kept in suspension throughout the clotting incubation time, become enmeshed in the fibrin matrix if a clots forms. Upon centrifugation of the plate, untrapped RBC's form buttons, the sizes of which correspond to the degree of clot inhibition; this providing a measure of anti-coagulant activity (AC). Sodium heparin is used as a positive control and activity is reported in wells appearing in Table I.

[2] = Intrinsic Therapeutic Index (Code 026 versus AC); conditions: Table II
Text: The computation of an Intrinsic Therapeutic Index (ITI) was devised to correlate the results, expressed in wells, obtained in the in vitro Code 026 (C1 inhibitor) test and the in vitro anti-coagulant (AC) test into a meaningful value which would aid in the net evaluation of the activity of the compounds of this invention.
The ITI of a given compound may be defined as the antilogarithm of the logarithmic (base 2) difference between the highest serial dilution in wells which is active in the Code 026 test and the highest serial dilution in wells providing activity in the anti-coagulant test. The ITI is thus a measure of the separation of anti-complement and anti-coagulant activities; the higher the numerical value the more therapeutically useful the separation of activities.

human C1 = experiment: Test, Code 026 (C1 inhibitor); assay type: biochemical
Text: An active inhibitor protects C2 from C1 and C4; (ii) Test, Code 035 (C3-C9 inhibitor) -- This test determines the ability of the late components of human complement (C3-C9) to lyse EAC 142 in the presence of appropriate dilutions of the test compound. An active inhibitor protects EAC 142 from lysis by human C3-C9; (iii) Test, Code 036 (C-Shunt inhibitor) -- In this test human erythrocytes rendered fragile are lysed in autologous serum via the shunt pathway activated by cobra venom factor in the presence of appropriate dilutions of the test compound. Inhibition of the shunt pathway results in failure of lysis; (iv) Forssman Vasculitis Test -- Here, the well known complement dependent lesion, Forssman vasculitis, is produced in guinea pigs by intradermal injection of rabbit anti-Forssman antiserum. […]

[3] = system: hereditary angioneurotic edema; conditions: The New England Journal of Medicine, 286, 808-812 (1972); cited from earlier work
complement system = conditions: cited from earlier work; for anticomplementary effect: British Journal of Experimental Pathology, 33, 327-339 (1952)

**Q.** Which results are given for O=C([O-])c1cc(C(=O)Nc2ccc(C(=O)[O-])c(C(=O)[O-])c2)cc(C(=O)Nc2ccc(C(=O)[O-])c(C(=O)[O-])c2)c1.[Na+].[Na+].[Na+].[Na+].[Na+] [4,4'-[5-Carboxy-1,3-phenylenebis(carbonylimino)]-diphthalic acid pentasodium salt]?
**A.** AC Wells ([1]; Table I, two-fold serial dilution assay, sodium heparin positive control): ≤ -2 Wells; Anti-Coagulant Activity (Wells) AC ([1]; Table II, in vitro): -2 Wells; Intrinsic Therapeutic Index ([2]; antilogarithm of the logarithmic (base 2) difference): 16; Logarithmic Difference Expressed as Wells ([2]; log base 2 difference, Code 026 minus AC): +4 Wells; C1 026 Wells (human C1; Table I, two-fold serial dilution assay, higher well number indicates higher activity): +2 Wells; Complement Inhibiting Activity (Wells) Code 026 (human C1; Table II, in vitro): +2 Wells

**Q.** For Cc1ccc(C(=O)Nc2ccc(S(=O)(=O)O)c3cc(S(=O)(=O)O)cc(S(=O)(=O)O)c23)cc1NC(=O)c1cccc(NC(=O)Nc2cccc(C(=O)Nc3cc(C(=O)Nc4ccc(S(=O)(=O)O)c5cc(S(=O)(=O)O)cc(S(=O)(=O)O)c45)ccc3C)c2)c1 [Suramin, 8-(3-benzamido-4-methylbenzamido)naphthalene-1, -3,5-trisulfonic acid], which “treatment of hereditary angioneurotic edema” value (“treatment” for short) [3] is on record?
**A.** Its value is “used with success”.

**Q.** And the “inhibition of the complement system” value (complement system; Clin. Exp. Immunol., 10, 127-138 (1972))?
**A.** Its value is “competitive inhibitor of the complement system”.

**Q.** Which anticomplementary effect (complement system) does the source give for Nc1ccc2cc(S(=O)(=O)O)cc(O)c2c1N=Nc1ccc(NC(=O)Nc2ccc(N=Nc3c(N)ccc4cc(S(=O)(=O)O)cc(O)c34)c(S(=O)(=O)O)c2)cc1S(=O)(=O)O [chlorazol fast pink, 3,3'-ureylenebis-[6-(2-amino-8-hydroxy-6-sulfo-1-naphthylazo)]benzenesulfonic acid, tetrasodium salt] here?
**A.** Its anticomplementary effect is “reported to have an anticomplementary effect”.

**Q.** With NCCCCCC(=O)O [epsilon-aminocaproic acid] as the compound, how does the “treatment” value [3] read?
**A.** Its value is “used with success”.

**Q.** Which “treatment” value [3] does the source give for NC[C@H]1CC[C@H](C(=O)O)CC1 [tranexamic acid] here?
**A.** The value was “used with success”.

**Q.** Which anticomplementary effect (complement system) does the source give for heparin here?
**A.** The anticomplementary effect was “reported to have an anticomplementary effect”.
